Test results taken from patent US20240032541A1, “HERBICIDAL COMPOUNDS” (SYNGENTA CROP PROTECTION AG, priority 2020, published 2024).

Assays:
Type in all cases: in vivo
[1] = system: Amaranthus retoflexus (AMARE); experiment: Pre-emergence herbicide glasshouse test; conditions: pre-emergence (sprayed after one day cultivation), 250 g/ha, evaluated after 13 days
Procedure: (§1) Seeds of a variety of test species are sown in standard soil in pots Amaranthus retoflexus (AMARE), Echinochloa crus-galli (ECHCG), Setaria faberi (SETFA)). After cultivation for one day (pre-emergence) or after 8 days cultivation (post-emergence) under controlled conditions in a glasshouse (at 24/16° C., day/night; 14 hours light; 65% humidity), the plants are sprayed with an aqueous spray solution derived from the formulation of the technical active ingredient in acetone/water (50:50) solution containing 0.5% Tween 20 (polyoxyethelyene sorbitan monolaurate, CAS RN 9005-64-5). Compounds are applied at 250 g/ha unless otherwise stated. The test plants are then grown in a glasshouse under controlled conditions in a glasshouse (at 24/16° C., day/night; 14 hours light; 65% humidity) and watered twice daily. After 13 days for pre and post-emergence, the test is evaluated for the percentage damage caused to the plant. The biological activities are shown in the following table on a five-point scale (5=81-100%; 4=61-80%; 3=41-60%; 2=21-40%; 1=0-20%).

[2] = system: Setaria faberi (SETFA); experiment: Pre-emergence herbicide glasshouse test; conditions: pre-emergence (sprayed after one day cultivation), 250 g/ha, evaluated after 13 days
Procedure: as §1

[3] = system: Echinochloa crus-galli (ECHCG); experiment: Pre-emergence herbicide glasshouse test; conditions: pre-emergence (sprayed after one day cultivation), 250 g/ha, evaluated after 13 days
Procedure: as §1

[4] = system: Amaranthus retoflexus (AMARE); experiment: Post-emergence herbicide glasshouse test; conditions: post-emergence (sprayed after 8 days cultivation), 250 g/ha, evaluated after 13 days
Procedure: as §1

[5] = system: Setaria faberi (SETFA); experiment: Post-emergence herbicide glasshouse test; conditions: post-emergence (sprayed after 8 days cultivation), 250 g/ha, evaluated after 13 days
Procedure: as §1

[6] = system: Echinochloa crus-galli (ECHCG); experiment: Post-emergence herbicide glasshouse test; conditions: post-emergence (sprayed after 8 days cultivation), 250 g/ha, evaluated after 13 days
Procedure: as §1

SMILES | percentage damage caused to the plant, five-point scale, AMARE [1] | percentage damage caused to the plant, five-point scale, SETFA [2] | percentage damage caused to the plant, five-point scale, ECHCG [3] | percentage damage caused to the plant, five-point scale, AMARE [4] | percentage damage caused to the plant, five-point scale, SETFA [5] | percentage damage caused to the plant, five-point scale, ECHCG [6]
COc1cnc(Oc2cccc3nc(C(F)(F)F)nc(CCCC(F)(F)F)c23)nc1 [Compound 1.026] | 2 (2=21-40%) | 4 (4=61-80%) | 4 (4=61-80%) | 4 (4=61-80%) | 4 (4=61-80%) | 3 (3=41-60%)
FC(F)Oc1cnc(Oc2cccc3nc(C(F)(F)F)nc(CCCC(F)(F)F)c23)nc1 [Compound 1.027] | 3 (3=41-60%) | 0 | 2 (2=21-40%) | 4 (4=61-80%) | 1 (1=0-20%) | 1 (1=0-20%)
C=CCCc1nc(C(F)(F)F)nc2cccc(Oc3ncc(Cl)cn3)c12 [Compound 1.028, 4-but-3-enyl-5-(5-chloropyrimidin-2-yl) oxy-2 (trifluoromethyl)quinazoline] | 4 (4=61-80%) | 5 (5=81-100%) | 5 (5=81-100%) | 5 (5=81-100%) | 4 (4=61-80%) | 4 (4=61-80%)
FC(F)(F)CCCc1nc(Br)nc2cccc(Oc3ncc(Cl)cn3)c12 [Compound 1.029] | 1 (1=0-20%) | 4 (4=61-80%) | 1 (1=0-20%) | 4 (4=61-80%) | 2 (2=21-40%) | 1 (1=0-20%)
FC(F)(F)CCCc1nc(C2CCCC2)nc2cccc(Oc3ncc(Cl)cn3)c12 [Compound 1.031] | 1 (1=0-20%) | 5 (5=81-100%) | 5 (5=81-100%) | 4 (4=61-80%) | 3 (3=41-60%) | 3 (3=41-60%)
CCCCCCc1nc(CCCC(F)(F)F)c2c(Oc3ncc(Cl)cn3)cccc2n1 [Compound 1.032] | 4 (4=61-80%) | 4 (4=61-80%) | 4 (4=61-80%) | 5 (5=81-100%) | 3 (3=41-60%) | 3 (3=41-60%)
CCCc1nc(CCCC(F)(F)F)c2c(Oc3ncc(Cl)cn3)cccc2n1 [Compound 1.033] | 2 (2=21-40%) | 5 (5=81-100%) | 5 (5=81-100%) | 4 (4=61-80%) | 3 (3=41-60%) | 3 (3=41-60%)
FC(F)(F)CCCc1nc(C2CC2)nc2cccc(Oc3ncc(Cl)cn3)c12 [Compound 1.036] | 2 (2=21-40%) | 5 (5=81-100%) | 4 (4=61-80%) | 4 (4=61-80%) | 2 (2=21-40%) | 3 (3=41-60%)
Cc1nc2cccc(Oc3ncc(Cl)cn3)c2c(CCCC(F)(F)F)c1C#N [Compound 1.043, 5-(5-chloropyrimidin-2-yl) oxy-2-methyl-4-(4,4,4-trifluorobutyl) quinoline-3-carbonitrile] | 0 | 2 (2=21-40%) | 1 (1=0-20%) | 2 (2=21-40%) | 2 (2=21-40%) | 1 (1=0-20%)
Cc1ccc(Oc2ncc(Cl)cn2)c2c(CCCC(F)(F)F)nc(C(F)(F)F)nc12 [Compound 1.046, 5-(5-chloropyrimidin-2-yl)oxy-8-methyl-4-(4,4,4-trifluorobutyl)-2-(trifluoromethyl)quinazoline] | 2 (2=21-40%) | 3 (3=41-60%) | 2 (2=21-40%) | 4 (4=61-80%) | 2 (2=21-40%) | 3 (3=41-60%)
CC(C)c1nc(CCCC(F)(F)F)c2c(Oc3ncc(Cl)cn3)cccc2n1 [Compound 1.050, 5-(5-chloropyrimidin-2-yl)oxy-2-isopropyl-4-(4,4,4-trifluorobutyl)quinazoline] | 5 (5=81-100%) | 5 (5=81-100%) | 5 (5=81-100%) | 5 (5=81-100%) | 3 (3=41-60%) | 2 (2=21-40%)
